Measurements published in patent publication US20140288043A1, “PYRAZOLOPYRIDINE COMPOUNDS” (Genentech, Inc., priority 2013, published 2014).

biological target: LRRK2 (Homo sapiens, UniProt Q5S007); assay: LRRK2 protein kinase assay ([γ-33P] ATP, peptide substrate), KI values of Table 1; format: biochemical; settings: LRRK2 affinity values
Excerpt: All LRRK2 protein kinases were of human origin and were sourced from Invitrogen Corporation (Carlsbad, Calif. 92008 USA) unless otherwise indicated. The active mutant used was recombinant human, catalytic domain (amino acids 970-2527) containing a G2019S mutation, GST-tagged, expressed in insect cells (Invitrogen Cat#PV4881). The wild type used was recombinant human, catalytic domain (amino acids 970-2527) GST-tagged, expressed in insect cells (Invitrogen Cat#PV4873). The kinase dead mutant used was recombinant human, catalytic domain (amino acids 970-2527) containing a D1994A mutation, GST-tagged, expressed in insect cells (Invitrogen Cat#PM4041AE). No special measures were taken to activate any of the kinases.
All assays were carried out at room temperature (˜21° C.) and were linear with respect to time and enzyme concentration under the conditions used. Assays were performed for 180 min in a 96 well format. LRRK2 was present at a concentration of approximately 5 nM. The enzyme was diluted and assayed in 50 mM Tris-HCl pH7.5, 0.1 mM EGTA, 1 mM DTT and 10 mM MgCl2. The concentration of magnesium chloride in the assay was 10 mM. The [γ-33P] ATP (0.4 μCi/well) was used at 134 uM for G2019S mutant and at 57 μM for the wild type kinase in order to be at Km. The peptide substrate in the assay was […] at 100 μM.
The assays were initiated with Mg/ATP and stopped by the addition of 25 μl/well 50% orthophosphoric acid. Reactions were harvested onto Whatman P81 Unifilter Plates (Fisher Scientific. Loughborough, LE115RG, UK. Cat# FDU-105-020U) using a Tomtec harvester. (Tomtec Hamden, Conn. 06514. USA) Plates were counted using a Perkin Elmer Top Count NX7. (Perkin Elmer, Shelton Conn. 06484-4794 USA)
IC50 values of inhibitors were determined after carrying out assays at 10 different concentrations of each compound in duplicate.

Chain of LRRK2 (Q5S007 whole entry G2019S, form open, the tested form may be a part): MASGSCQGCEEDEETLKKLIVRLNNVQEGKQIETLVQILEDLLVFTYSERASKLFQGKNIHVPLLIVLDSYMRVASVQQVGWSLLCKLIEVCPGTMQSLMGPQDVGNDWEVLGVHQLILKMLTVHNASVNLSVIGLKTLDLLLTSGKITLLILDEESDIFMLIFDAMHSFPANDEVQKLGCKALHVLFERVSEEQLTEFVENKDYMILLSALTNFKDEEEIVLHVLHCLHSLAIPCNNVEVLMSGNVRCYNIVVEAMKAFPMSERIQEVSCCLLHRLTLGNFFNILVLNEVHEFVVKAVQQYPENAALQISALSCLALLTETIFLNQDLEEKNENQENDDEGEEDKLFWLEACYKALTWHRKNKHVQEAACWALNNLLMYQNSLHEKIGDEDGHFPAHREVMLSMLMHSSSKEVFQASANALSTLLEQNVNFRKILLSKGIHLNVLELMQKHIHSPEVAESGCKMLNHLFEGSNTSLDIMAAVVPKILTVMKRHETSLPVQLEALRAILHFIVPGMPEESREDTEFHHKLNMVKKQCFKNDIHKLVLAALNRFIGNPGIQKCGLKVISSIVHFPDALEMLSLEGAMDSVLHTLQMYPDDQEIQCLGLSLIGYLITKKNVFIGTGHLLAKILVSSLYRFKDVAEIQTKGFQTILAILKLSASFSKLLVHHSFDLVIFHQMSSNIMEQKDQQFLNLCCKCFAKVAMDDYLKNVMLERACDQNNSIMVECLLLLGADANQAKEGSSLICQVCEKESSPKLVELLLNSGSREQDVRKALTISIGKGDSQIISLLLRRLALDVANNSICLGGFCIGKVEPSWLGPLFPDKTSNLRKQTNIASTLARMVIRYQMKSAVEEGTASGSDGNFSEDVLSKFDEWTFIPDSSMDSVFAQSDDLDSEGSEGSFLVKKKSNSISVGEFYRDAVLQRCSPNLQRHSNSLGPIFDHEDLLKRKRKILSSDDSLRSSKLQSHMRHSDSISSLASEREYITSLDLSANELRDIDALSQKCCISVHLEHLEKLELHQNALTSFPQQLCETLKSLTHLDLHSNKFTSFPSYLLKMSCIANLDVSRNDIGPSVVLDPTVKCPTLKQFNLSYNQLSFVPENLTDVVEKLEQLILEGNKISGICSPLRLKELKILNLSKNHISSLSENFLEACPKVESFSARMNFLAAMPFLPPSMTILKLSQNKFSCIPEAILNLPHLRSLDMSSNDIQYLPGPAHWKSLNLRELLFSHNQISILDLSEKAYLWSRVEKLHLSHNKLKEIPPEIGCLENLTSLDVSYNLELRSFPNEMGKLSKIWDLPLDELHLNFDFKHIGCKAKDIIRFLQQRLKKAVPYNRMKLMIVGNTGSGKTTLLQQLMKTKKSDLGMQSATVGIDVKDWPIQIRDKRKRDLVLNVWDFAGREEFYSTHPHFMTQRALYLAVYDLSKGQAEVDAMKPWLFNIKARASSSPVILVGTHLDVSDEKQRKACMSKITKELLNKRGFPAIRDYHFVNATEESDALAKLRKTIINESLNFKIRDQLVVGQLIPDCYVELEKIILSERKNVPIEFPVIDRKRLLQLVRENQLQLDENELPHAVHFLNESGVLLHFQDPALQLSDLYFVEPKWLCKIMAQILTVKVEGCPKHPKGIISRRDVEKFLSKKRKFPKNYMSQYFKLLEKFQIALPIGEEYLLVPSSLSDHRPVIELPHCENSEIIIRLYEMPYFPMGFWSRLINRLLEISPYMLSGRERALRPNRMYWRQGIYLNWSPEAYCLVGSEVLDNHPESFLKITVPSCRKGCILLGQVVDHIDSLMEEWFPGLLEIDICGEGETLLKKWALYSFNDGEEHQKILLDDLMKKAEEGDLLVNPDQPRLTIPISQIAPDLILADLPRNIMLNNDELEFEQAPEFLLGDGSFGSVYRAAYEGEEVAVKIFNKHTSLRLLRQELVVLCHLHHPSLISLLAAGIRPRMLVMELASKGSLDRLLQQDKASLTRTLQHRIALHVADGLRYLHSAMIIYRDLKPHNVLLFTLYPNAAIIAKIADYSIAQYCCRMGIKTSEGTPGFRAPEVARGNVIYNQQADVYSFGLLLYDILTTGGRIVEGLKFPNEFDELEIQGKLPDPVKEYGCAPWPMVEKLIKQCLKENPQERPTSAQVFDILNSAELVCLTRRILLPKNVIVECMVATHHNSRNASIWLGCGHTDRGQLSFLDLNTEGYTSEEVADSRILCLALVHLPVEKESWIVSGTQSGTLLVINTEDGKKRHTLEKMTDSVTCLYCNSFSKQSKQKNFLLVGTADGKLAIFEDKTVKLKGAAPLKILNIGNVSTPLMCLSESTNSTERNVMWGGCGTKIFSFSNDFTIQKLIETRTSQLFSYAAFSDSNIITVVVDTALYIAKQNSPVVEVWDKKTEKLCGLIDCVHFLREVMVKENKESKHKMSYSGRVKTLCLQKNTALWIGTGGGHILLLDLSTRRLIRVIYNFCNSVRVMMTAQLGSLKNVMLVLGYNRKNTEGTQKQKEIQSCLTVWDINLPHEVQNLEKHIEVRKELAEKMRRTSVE

Ki [nM] | Structure (SMILES)
28.7 | CC(C)Nc1nccc2[nH]nc(-c3cc(C4CCCO4)ncn3)c12 (stereo not shown) [Compound 54, N-isopropyl-3-(6-(tetrahydrofuran-2-yl)pyrimidin-4-yl)-1H-pyrazolo[4,3-c]pyridin-4-amine]
3.1 | c1ccc(-c2n[nH]c3ccnc(NC4CCOCC4)c23)nc1 [Compound 17, 3-(pyridin-2-yl)-N-(tetrahydro-2H-pyran-4-yl)-1H-pyrazolo[4,3-c]pyridin-4-amine]
1.8 | Cc1cccc(-c2n[nH]c3ccnc(NC4CCOCC4)c23)n1 [Compound 28, 3-(6-methylpyridin-2-yl)-N-(tetrahydro-2H-pyran-4-yl)-1H-pyrazolo[4,3-c]pyridin-4-amine]
20.3 | Cc1nc(-c2n[nH]c3ccnc(NC4CCC(F)(F)CC4)c23)cc(C(F)(F)F)n1 [Compound 67, N-(4,4-difluorocyclohexyl)-3-(2-methyl-6-(trifluoromethyl)pyrimidin-4-yl)-1H-pyrazolo[4,3-c]pyridin-4-amine]
8.4 | CC(C)Nc1nccc2[nH]nc(-c3cc(C4CCN(C)CC4)ccn3)c12 [Compound 40, N-isopropyl-3-(4-(1-methylpiperidin-4-yl)pyridin-2-yl)-1H-pyrazolo[4,3-c]pyridin-4-amine]
1 | CC(C)Nc1nccc2[nH]nc(-c3cc(-c4ccn(C)n4)ccn3)c12 [Compound 46, N-isopropyl-3-(4-(1-methyl-1H-pyrazol-3-yl)pyridin-2-yl)-1H-pyrazolo[4,3-c]pyridin-4-amine]
80.3 | CC(C)Nc1nccc2[nH]nc(-c3cc(C(=O)N4CCOCC4)ccn3)c12 [Compound 56, (2-(4-(isopropylamino)-1H-pyrazolo[4,3-c]pyridin-3-yl)pyridin-4-yl)(morpholino)methanone]
3.9 | CC(C)Nc1nccc2[nH]nc(-c3cc(C4CCOCC4)ccn3)c12 [Compound 39, N-isopropyl-3-(4-(tetrahydro-2H-pyran-4-yl)pyridin-2-yl)-1H-pyrazolo[4,3-c]pyridin-4-amine]
193 | CC(C)Nc1nccc2[nH]nc(-c3cc(C(=O)N(C)C)ncn3)c12 [Compound 62, 6-(4-(isopropylamino)-1H-pyrazolo[4,3-c]pyridin-3-yl)-N,N-dimethylpyrimidine-4-carboxamide]
1.6 | CC(C)Nc1nccc2[nH]nc(-c3cc(N4CCOCC4)ccn3)c12 [Compound 3, N-isopropyl-3-(4-morpholinopyridin-2-yl)-1H-pyrazolo[4,3-c]pyridin-4-amine]
152 | CCNc1nccc2[nH]nc(-c3ccncn3)c12 [Compound 19, N-ethyl-3-(pyrimidin-4-yl)-1H-pyrazolo[4,3-c]pyridin-4-amine]
2.5 | CC(C)Nc1nccc2[nH]nc(-c3cc(Cl)ccn3)c12 [Compound 30, 3-(4-chloropyridin-2-yl)-N-isopropyl-1H-pyrazolo[4,3-c]pyridin-4-amine]
1.1 | Cc1c(-c2ccnc(-c3n[nH]c4ccnc(NC(C)C)c34)c2)cnn1C [Compound 44, 3-(4-(1,5-dimethyl-1H-pyrazol-4-yl)pyridin-2-yl)-N-isopropyl-1H-pyrazolo[4,3-c]pyridin-4-amine]
3.5 | CCc1cc(-c2n[nH]c3ccnc(NC(C)C)c23)nn1C [Compound 11, 3-(5-ethyl-1-methyl-1H-pyrazol-3-yl)-N-isopropyl-1H-pyrazolo[4,3-c]pyridin-4-amine]
6 | CC(C)Nc1nccc2[nH]nc(-c3cc(S(C)(=O)=O)ccn3)c12 [Compound 72, N-isopropyl-3-(4-(methylsulfonyl)pyridin-2-yl)-1H-pyrazolo[4,3-c]pyridin-4-amine]
1.1 | CC(C)Nc1nccc2[nH]nc(-c3cc(N4CCOCC4)ncn3)c12 [Compound 4, N-isopropyl-3-(6-morpholinopyrimidin-4-yl)-1H-pyrazolo[4,3-c]pyridin-4-amine]
1.4 | FC1(F)CN(c2ccnc(-c3n[nH]c4ccnc(NC5CCOCC5)c34)c2)CC(F)(F)O1 [Compound 61, 3-(4-(2,2,6,6-tetrafluoro-morpholino)pyridin-2-yl)-N-(tetrahydro-2H-pyran-4-yl)-1H-pyrazolo[4,3-c]pyridin-4-amine]
1 | Cc1nccc(-c2n[nH]c3ccnc(NC4CCOCC4)c23)n1 [Compound 33, 3-(2-methylpyrimidin-4-yl)-N-(tetrahydro-2H-pyran-4-yl)-1H-pyrazolo[4,3-c]pyridin-4-amine]
151 | CC(C)Nc1nccc2[nH]nc(-c3nnc(C4CC4)n3C)c12 [Compound 41, 3-(5-cyclopropyl-4-methyl-4H-1,2,4-triazol-3-yl)-N-isopropyl-1H-pyrazolo[4,3-c]pyridin-4-amine]

Ki [nM] | Structure (SMILES)
9.7 | CC(C)Nc1nccc2[nH]nc(-c3cc(C(F)(F)F)ncn3)c12 [Compound 24, N-isopropyl-3-(6-(trifluoromethyl)pyrimidin-4-yl)-1H-pyrazolo[4,3-c]pyridin-4-amine]
46.9 | CC(C)Nc1nccc2[nH]nc(-c3cc(C(=O)N(C)C)ccn3)c12 [Compound 55, 2-(4-(isopropylamino)-1H-pyrazolo[4,3-c]pyridin-3-yl)-N,N-dimethylisonicotinamide]
2.2 | CCOc1ccnc(-c2n[nH]c3ccnc(NC4CCOCC4)c23)c1 [Compound 50, 3-(4-ethoxypyridin-2-yl)-N-(tetrahydro-2H-pyran-4-yl)-1H-pyrazolo[4,3-c]pyridin-4-amine]
3.8 | N#Cc1ccnc(-c2n[nH]c3ccnc(NC4CCOCC4)c23)c1 [Compound 26, 2-(4-((tetrahydro-2H-pyran-4-yl)amino)-1H-pyrazolo[4,3-c]pyridin-3-yl)isonicotinonitrile]
13.1 | CCNc1nccc2[nH]nc(-c3cn(C(C)C)nn3)c12 [Compound 9, N-ethyl-3-(1-isopropyl-1H-1,2,3-triazol-4-yl)-1H-pyrazolo[4,3-c]pyridin-4-amine]
0.7 | Cc1cc(C(F)(F)F)cc(-c2n[nH]c3ccnc(NC4CCOCC4)c23)n1 [Compound 70, 3-(6-methyl-4-(trifluoromethyl)pyridin-2-yl)-N-(tetrahydro-2H-pyran-4-yl)-1H-pyrazolo[4,3-c]pyridin-4-amine]
3.3 | CC(C)n1cnc(-c2n[nH]c3ccnc(NC4CCOCC4)c23)c1 [Compound 6, 3-(1-isopropyl-1H-imidazol-4-yl)-N-(tetrahydro-2H-pyran-4-yl)-1H-pyrazolo[4,3-c]pyridin-4-amine]
1.6 | CC(C)Nc1nccc2[nH]nc(-c3cc(C(F)(F)F)ccn3)c12 [Compound 20, N-isopropyl-3-(4-(trifluoromethyl)pyridin-2-yl)-1H-pyrazolo[4,3-c]pyridin-4-amine]
3.8 | CC(C)Nc1nccc2[nH]nc(-c3cc(C4CCOCC4)ncn3)c12 [Compound 47, N-isopropyl-3-(6-(tetrahydro-2H-pyran-4-yl)pyrimidin-4-yl)-1H-pyrazolo[4,3-c]pyridin-4-amine]
20.9 | CC(C)Nc1nccc2[nH]nc(-c3ccncn3)c12 [Compound 15, N-isopropyl-3-(pyrimidin-4-yl)-1H-pyrazolo[4,3-c]pyridin-4-amine]
4.5 | Cc1cc(S(C)(=O)=O)cc(-c2n[nH]c3ccnc(NC(C)C)c23)n1 [Compound 76, N-isopropyl-3-(6-methyl-4-(methylsulfonyl)pyridin-2-yl)-1H-pyrazolo[4,3-c]pyridin-4-amine]
0.5 | CCc1cc(-c2n[nH]c3ccnc(NC4CCOCC4)c23)nn1C [Compound 1, 3-(5-ethyl-1-methyl-1H-pyrazol-3-yl)-N-(tetrahydro-2H-pyran-4-yl)-1H-pyrazolo[4,3-c]pyridin-4-amine]
6.4 | FC1(F)CCC(Nc2nccc3[nH]nc(-c4ccccn4)c23)CC1 [Compound 34, N-(4,4-difluorocyclohexyl)-3-(pyridin-2-yl)-1H-pyrazolo[4,3-c]pyridin-4-amine]
6.8 | CS(=O)(=O)c1ccnc(-c2n[nH]c3ccnc(NC4CCOCC4)c23)c1 [Compound 69, 3-(4-(methylsulfonyl)pyridin-2-yl)-N-(tetrahydro-2H-pyran-4-yl)-1H-pyrazolo[4,3-c]pyridin-4-amine]
6 | c1cc(-c2n[nH]c3ccnc(NC4CCOCC4)c23)ncn1 [Compound 18, 3-(pyrimidin-4-yl)-N-(tetrahydro-2H-pyran-4-yl)-1H-pyrazolo[4,3-c]pyridin-4-amine]
14.2 | CCNc1nccc2[nH]nc(-c3cc(C#N)ccn3)c12 [Compound 25, 2-(4-(ethylamino)-1H-pyrazolo[4,3-c]pyridin-3-yl)isonicotinonitrile]
37.2 | CN(C)C(=O)c1ccnc(-c2n[nH]c3ccnc(NC4CCOCC4)c23)c1 [Compound 52, N,N-dimethyl-2-(4-((tetrahydro-2H-pyran-4-yl)amino)-1H-pyrazolo[4,3-c]pyridin-3-yl)isonicotinamide]
8.8 | FC(F)(F)CNc1nccc2[nH]nc(-c3ccccn3)c12 [Compound 43, 3-(pyridin-2-yl)-N-(2,2,2-trifluoroethyl)-1H-pyrazolo[4,3-c]pyridin-4-amine]
